In PMC5838563, “Compounds producing an effective combinatorial regimen for disruption of HIV‐1 latency” (EMBO Molecular Medicine, 2017):

How the values were obtained:
[1] = tested on: HIV‐1 LTR (Jurkat^Tat LTR‐luciferase cell line); experiment: Jurkat^Tat LTR‐luciferase reporter assay for HIV‐1 latency reversal; type: cell-based; conditions: Human immunodeficiency virus 1; 24 h treatment, percent activation relative to PMA
Procedure: Activity of compounds identified for latency‐reversing activity in the primary screens was further validated by examining the effect of a single concentration (7 μM) on an alternative reporter cell line, bearing an integrated HIV‐1 reporter virus where luciferase expression is produced from the 5′ LTR, in cells constitutively expressing the viral TAT protein (Fig 2A), referred to as Jurkat^Tat LTR‐luciferase. Importantly, this cell line has the HIV‐1 reporter virus integrated at a different chromosomal location than that of the A1 J‐Lat cell line and also enables validation of provirus reactivation with a second enzymatic luciferase assay. In these assays, after 24‐h treatment we observed 10 compounds that produced significant induction of luciferase activity, including two compounds from the KD2 library, three from the CCBN library and five compounds from the DIVERSet. Compounds that produced significant effects in these secondary assays were re‐ordered from their respective suppliers and examined in more detail using the HIV‐luciferase reporter cell line. […] These five compounds represent diverse chemical structures (Fig 2G).
Figure 2 Concentration–response analysis for five selected PH compounds • A Schematic representation of the pTY‐LAI‐luciferase reporter virus used in secondary screening assays, where luciferase expression is under the control of the 5′ LTR, in cloned lines derived from Jurkat^TAT cells bearing single‐copy integrants. • B–F Luciferase activity was measured from reporter cells treated for 24 h with the indicated compound concentrations. Results are presented as percent activation relative to PMA‐treated controls. The EC50 for each compound is indicated. Mean and standard error (SE) for the results are determined from three biological replicates (n = 3) and technical duplicates. • G Illustration of chemical structures of the PH compounds.
Luciferase assays were performed in 96‐well plate format, where 100 μl of cell culture containing 1 × 10^5 luciferase reporter cells was plated per well. After the indicated time of treatment, 100 μl of luciferase assay reagent (SuperlightTM luciferase reporter Gene Assay Kit; BioAssay Systems) was added per well, and incubated for 2 min at RT, when luciferase activity was measured on a VictorTM X3 Multilabel Plate Reader. Results were presented relative to the positive control samples treated with 50 nM PMA. T‐cell activation was measured using 1 × 10^5 wild‐type Jurkat^Tat cells or PBMCs purified from healthy donors, treated as indicated. After 24 h, cells were incubated with 2.4G2 antibody to block nonspecific binding and further stained with 5 μl of anti‐human CD69 or an IgG1 isotype control antibody conjugated with PE‐Cy^Tm7. After 30‐min incubation on ice, the cells were washed twice with PBS and analyzed using a Becton Dickinson LSRII flow cytometer (BD Biosciences) to determine mean fluorescence intensity (MFI), using FlowJo software. The mean fluorescence intensity (MFI) obtained from cells stained with IgG isotype antibody control was subtracted from that from cells stained with CD69 to compensate for background (MFICD69‐MFIIgG). IL‐2 production was measured in cell culture supernatants using a human IL‐2 ELISA System (eBioscience). Jurkat^Tat clones bearing integrations of the mini‐dual HIV reporter virus, clone #11 and #131, were plated at 1 × 10^5 per well in a 96‐well plate format, treated for the indicated time, washed with 1 ml PBS, and then transferred into flow cytometry tubes, where they were fixed with freshly made 1% formaldehyde for 10 min at RT prior to analysis by flow cytometry. Results are presented as ΔMFI, where MFI obtained from parental Jurkat^Tat cells undergoing the same treated was subtracted from the MFI corresponding to each cell line; ΔMFI = (MFI compound‐treated cell line 131/11 − MFI compound‐treated WT Jurkat^Tat cells).

[2] = tested on: latent HIV‐1 provirus in resting CD4^+ T cells from HIV‐1‐infected patients; experiment: Supernatant HIV‐1 RNA from resting CD4+ T cells of patients (RT–qPCR); type: cell-based; conditions: 30 μM, 24 h
Procedure: For this analysis, we purified resting CD4^+ (rCD4^+) T lymphocytes from pools of patient samples by two‐step negative selection (Appendix Table S3). […] Purified rCD4^+ T cells were treated with 30 μM of each PH compound for 24 h, and RNA from the culture supernatants was analyzed by one‐step RT–qPCR, where results are presented as copy numbers of the virion/ml. […] Based on its capability for reactivating latent provirus at multiple chromosomal locations in cell lines, its negligible toxic effect, and that it produces the most robust reactivation of virus from patient samples, we focused our subsequent analysis on this compound (Table 1).
Figure 8 Effect of PH compounds on expression of HIV provirus in latently infected cells from patients Resting CD4^+ T cells purified from patient samples (n = 18, Appendix Table S3) were treated with 30 μM of each PH compound for 24 h, and HIV‐1 RNA was measured in culture supernatants. Results are presented as HIV virions/ml (mean ± SE). LOD indicates the limit of detection, 100 copies/ml culture supernatant. TEXT PRINTED IN THE PICTURE: PMA: Supernatant HIV-1 mRNA (Copies/ml): 308929.80 (50 nM) | PH01: Supernatant HIV-1 mRNA (Copies/ml): 5348.04 (Single Concentration (30μM)) | PH02: Supernatant HIV-1 mRNA (Copies/ml): 17624.53 (Single Concentration (30μM)) | PH03: Supernatant HIV-1 mRNA (Copies/ml): 4714.11 (Single Concentration (30μM)) | PH04: Supernatant HIV-1 mRNA (Copies/ml): 7134.68 (Single Concentration (30μM)) | PH05: Supernatant HIV-1 mRNA (Copies/ml): 587.19 (Single Concentration (30μM))
HIV‐1 RNA was measured from 1 × 10^6 resting CD4^+ T lymphocytes treated with 30 μM of each compound. Extracellular RNA was isolated using the ZR Viral RNA Kit (Zymo Research) and total cellular mRNA using the RNeasy MinElute cleanup kit (Qiagen). HIV‐1 RNA concentrations were assayed in one‐step RT–qPCRs using the iTaq™ universal SYBR Green one‐step kit (BIO‐RAD) with the HIV‐1 LTR‐specific primers, AGCCGCCTAGCATTTCATC and […]. RNA copy number was calculated using a standard curve generated from titrated infections with RGH‐PGK virus (Dahabieh et al, 2013). Reproducibility of RT–qPCR analysis was confirmed using a second set of primers within HIV‐1 p24 Gag, AGCAGCCATGCAAATGTTA, […]. HIV‐1 RNA determinations were normalized to GAPDH RNA measured using the primers […] and […].

[3] = tested on: IL‐2 production and CD69 in primary cells; set-up: method as in previous results (reference not given); conditions: 10 nM PEP005, primary cells; ref previous results (reference not given); cited from earlier work
PKCδ/θ and IκBα/IκBε = tested on: PKCδ/θ and IκBα/IκBε; set-up: method as in Jiang et al, 2015; conditions: 12 nM PEP005; ref Jiang et al, 2015; cited from earlier work

## CC(=O)Oc1ccccc1N(C=C1Sc2ccccc2C1=O)C(C)=O [PH02, 2‐{acetyl[(3‐oxo‐1‐benzothien‐2(3H)‐ylidene)methyl]amino}phenyl acetate]
[1]
  EC50: 787 nM
[2]
  viral latency‐reversing activity compared to PMA: consistently produced the strongest effect
[2]; LOD 100 copies/ml
  Supernatant HIV-1 mRNA: 17624.53 Copies/ml

## C/C=C(/C)C(=O)O[C@H]1C(C)=C[C@]23C(=O)[C@@H](C=C(CO)[C@@H](O)[C@]12O)[C@H]1[C@@H](C[C@H]3C)C1(C)C [PEP005, ingenol‐3‐angelate, reference compound]
[3]
  CD69: does induce upregulation of CD69
  IL‐2 production: does not cause
PKCδ/θ and IκBα/IκBε
  time post‐treatment at which phosphorylation is induced: 0.5 to 2 h
